In patent US20240158446A1, “CYCLIC COMPOUND HAVING SELECTIVE INHIBITORY ACTION ON KRAS OVER HRAS AND NRAS” (CHUGAI SEIYAKU KABUSHIKI KAISHA, priority 2021, published 2024):
Like-named read-outs stand apart in the source and are kept apart here. *1 amine or outer side, *2 acyl side, *3 side chain or, on linkers, in order; H or OH if unused. Where a SMILES comes first, the peptide text is derived from it. Bridges are numbered along the chain shown (N, C = ends). [ ]: non-standard residue; d: D form. The star is where a group is joined. hPhe(3,5-F2-4-CF3) = N[C@@H](CCc1cc(F)c(C(F)(F)F)c(F)c1)C(=O)O; hPhe(3-Cl-4-CF3) = N[C@@H](CCc1ccc(C(F)(F)F)c(Cl)c1)C(=O)O; NPrPhe(4-CF3) = CCCN[C@@H](Cc1ccc(C(F)(F)F)cc1)C(=O)O; NMeGly(cPent) = CN[C@H](C(=O)O)C1CCCC1; X8 = C[C@@](N[*:1])(C(=O)[*:2])C1CC1; Hyp = O=C(O)[C@@H]1C[C@@H](O)CN1; NMeD = CN[C@@H](CC(=O)O)C(=O)O; NMeL = CN[C@@H](CC(C)C)C(=O)O; Morpholide = C1CN(*)CCO1; Aze = O=C(O)[C@@H]1CCN1; Ac4c = NC1(C(=O)O)CCC1; Sar = CNCC(=O)O

Tests used:
[1] = target: GDP-bound NRAS wild-type protein (Homo sapiens, UniProt P01111); assay: Binding to NRAS by surface plasmon resonance (SPR), Single Cycle Kinetics; details: for NRAS/KRAS (ratio of KD value with respect to NRAS to KD value with respect to KRAS) / NRAS/KRAS (ratio of KD value for NRAS to KD value for KRAS): SPR, GDP-bound NRAS wild-type protein vs GDP-bound KRAS wild-type protein
Sequence of GDP-bound NRAS wild-type protein (P01111 whole entry): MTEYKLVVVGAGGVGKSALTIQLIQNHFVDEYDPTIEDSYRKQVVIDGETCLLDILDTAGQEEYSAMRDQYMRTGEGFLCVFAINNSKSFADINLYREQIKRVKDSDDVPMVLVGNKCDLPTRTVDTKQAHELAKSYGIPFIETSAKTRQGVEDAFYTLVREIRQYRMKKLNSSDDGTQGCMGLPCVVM

[2] = target: GDP-bound KRAS wild-type protein (Homo sapiens, UniProt P01116); assay: Binding to KRAS by surface plasmon resonance (SPR), Single Cycle Kinetics; details: GDP-bound KRAS wild-type protein, read-out: KRAS KD
Sequence of GDP-bound KRAS wild-type protein (P01116 whole entry): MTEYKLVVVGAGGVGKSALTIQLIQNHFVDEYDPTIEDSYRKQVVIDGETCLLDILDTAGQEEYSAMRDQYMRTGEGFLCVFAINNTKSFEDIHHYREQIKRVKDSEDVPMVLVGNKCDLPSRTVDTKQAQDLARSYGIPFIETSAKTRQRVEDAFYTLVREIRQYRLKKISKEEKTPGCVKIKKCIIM

[3] = target: GDP-bound HRAS wild-type protein (Homo sapiens, UniProt P01112); assay: Binding to HRAS by surface plasmon resonance (SPR), Single Cycle Kinetics; details: for HRAS/KRAS (ratio of KD value with respect to HRAS to KD value with respect to KRAS) / HRAS/KRAS (ratio of KD value for HRAS to KD value for KRAS): SPR, GDP-bound HRAS wild-type protein vs GDP-bound KRAS wild-type protein
Sequence of GDP-bound HRAS wild-type protein (P01112 whole entry): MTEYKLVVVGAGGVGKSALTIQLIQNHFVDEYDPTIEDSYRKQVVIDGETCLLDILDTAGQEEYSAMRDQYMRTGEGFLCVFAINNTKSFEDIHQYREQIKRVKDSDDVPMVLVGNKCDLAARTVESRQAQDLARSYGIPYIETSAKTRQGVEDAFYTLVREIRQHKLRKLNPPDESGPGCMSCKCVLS

[4] = SPR Single Cycle Kinetics, 1:1 binding model

Kd [2, 4] | Kd ([2]; SPR, Single Cycle Kinetics) | SMILES | NRAS/KRAS (ratio of KD value with respect to NRAS to KD value with respect to KRAS) [1] | HRAS/KRAS (ratio of KD value with respect to HRAS to KD value with respect to KRAS) [3] | NRAS/KRAS (ratio of KD value for NRAS to KD value for KRAS) [1] | HRAS/KRAS (ratio of KD value for HRAS to KD value for KRAS) [3] | NRAS/KRAS (ratio of KD value with respect to GDP-bound NRAS wild-type protein to KD value with respect to KRAS) ([1]; SPR KD ratio NRAS/KRAS, class symbols) | HRAS/KRAS (ratio of KD value with respect to GDP-bound HRAS wild-type protein to KD value with respect to KRAS) ([3]; SPR KD ratio HRAS/KRAS, class symbols)
0.51 nM | – | CC[C@H](C)[C@@H]1NC(=O)[C@H](CC(C)C)N(C)C(=O)C[C@@H](C(=O)N(C)C)N(C)C(=O)[C@H](C2CCCC2)N(C)C(=O)C2(CCCC2)NC(=O)[C@@H]2CC(F)(F)CN2C(=O)[C@H](CCc2cc(F)c(C(F)(F)F)c(F)c2)NC(=O)CN(C)C(=O)[C@H](Cc2ccc(C(F)(F)F)cc2)N2CCCCC[C@@H](C2=O)N(C)C(=O)CN(C)C1=O [PP0465] | B (a compound having 3 or more and less than 10 is denoted as B) | B (a compound having 3 or more and less than 10 is denoted as B) | – | – | – | –
0.8 nM | – | CCO[C@@H]1C[C@H]2C(=O)NC3(CCCC3)C(=O)N(C)[C@@H](C3CCCC3)C(=O)N(C)[C@H](C(=O)N(C)C)CC(=O)N(C)[C@@H](CC(C)C)C(=O)N[C@@H]([C@@H](C)CC)C(=O)N(C)CC(=O)N(C)[C@H]3CCCCCN(C3=O)[C@@H](Cc3ccc(C(F)(F)F)cc3)C(=O)N(C)CC(=O)N[C@@H](CCc3cc(F)c(C(F)(F)F)c(F)c3)C(=O)N2C1 [PP0468] | B (a compound having 3 or more and less than 10 is denoted as B) | B (a compound having 3 or more and less than 10 is denoted as B) | – | – | – | –
1 nM | – | C#CC[C@H]1C(=O)N[C@@H]([C@@H](C)CC)C(=O)N(C)CC(=O)N(C)[C@H]2C/C=C\CCN(C2=O)[C@@H](Cc2ccc(C(F)(F)F)cc2)C(=O)N(C)CC(=O)N[C@@H](CCc2ccc(C(F)(F)F)c(OC)c2)C(=O)N2CC[C@H]2C(=O)NC2(CC(C)(C)C2)C(=O)N(C)[C@@H](C2CCCC2)C(=O)N(C)[C@H](C(=O)N(C)C)CC(=O)N1C [PP2909] | – | – | – | – | B (a compound having 3 or more and less than 10 is denoted as B) | B (a compound having 3 or more and less than 10 is denoted as B)

The next lines start with the molecule.

SMILES | Kd [2, 4] | Kd ([2]; SPR, Single Cycle Kinetics) | NRAS/KRAS (ratio of KD value with respect to NRAS to KD value with respect to KRAS) [1] | HRAS/KRAS (ratio of KD value with respect to HRAS to KD value with respect to KRAS) [3] | NRAS/KRAS (ratio of KD value for NRAS to KD value for KRAS) [1] | HRAS/KRAS (ratio of KD value for HRAS to KD value for KRAS) [3] | NRAS/KRAS (ratio of KD value with respect to GDP-bound NRAS wild-type protein to KD value with respect to KRAS) ([1]; SPR KD ratio NRAS/KRAS, class symbols) | HRAS/KRAS (ratio of KD value with respect to GDP-bound HRAS wild-type protein to KD value with respect to KRAS) ([3]; SPR KD ratio HRAS/KRAS, class symbols)
CC[C@H](C)[C@@H]1NC(=O)[C@H](CC(C)C)N(C)C(=O)C[C@@H](C(=O)N2CCOCC2)N(C)C(=O)[C@H](C2CCCC2)N(C)C(=O)C2(CCC2)NC(=O)[C@@H]2[C@H](OC)CCN2C(=O)[C@H](CCc2cc(F)c(C(F)(F)F)c(F)c2)NC(=O)CN(C)C(=O)[C@H](Cc2ccc(C(F)(F)F)cc2)N2CCCCC[C@@H](C2=O)N(C)C(=O)CN(C)C1=O [PP1085] | – | 0.95 nM | – | – | A (a compound having 10 or more and less than 20 is denoted as A) | A (a compound having 10 or more and less than 20 is denoted as A) | – | –
CC[C@H](C)[C@@H]1NC(=O)[C@H](CC(C)C)N(C)C(=O)C[C@@H](C(=O)N2CCOCC2)N(C)C(=O)[C@H](C2CCCC2)N(C)C(=O)C2(CCCC2)NC(=O)[C@@H]2CCCN2C(=O)[C@H](CCc2ccc(C(F)(F)F)c(Cl)c2)NC(=O)CN(C)C(=O)[C@H](Cc2ccc(C(F)(F)F)cc2)N2CC=CC[C@@H](C2=O)N(C)C(=O)CN(C)C1=O [PP0462] | 0.32 nM | – | C (A compound having a KD ratio of 0.1 or more and less than 3 is denoted as C) | C (A compound having a KD ratio of 0.1 or more and less than 3 is denoted as C) | – | – | – | –
CCCN1C(=O)CN(C)C(=O)CN(C)C(=O)[C@H]([C@@H](C)CC)NC(=O)[C@H](CC(C)C)N(C)C(=O)C[C@@H](C(=O)N(C)C)N(C)C(=O)[C@H](C2CCCC2)N(C)C(=O)[C@](C)(C2CC2)NC(=O)[C@@H]2CCCN2C(=O)[C@H](CCc2cc(F)c(C(F)(F)F)c(F)c2)NC(=O)CN(C)C(=O)[C@@H]1Cc1ccc(C(F)(F)F)cc1 [PP0734] ([NMeL]I[Sar][Sar][NPrPhe(4-CF3)][Sar][hPhe(3,5-F2-4-CF3)]P[X8][NMeGly(cPent)][NMeD]-NMe2; lactam N-11) | 0.38 nM | – | B (a compound having 3 or more and less than 10 is denoted as B) | C (A compound having a KD ratio of 0.1 or more and less than 3 is denoted as C) | – | – | – | –
CCCN1C(=O)CN(C)C(=O)[C@@H]2CCN2C(=O)[C@H]([C@@H](C)CC)NC(=O)[C@H](CC(C)C)N(C)C(=O)C[C@@H](C(=O)N2CCOCC2)N(C)C(=O)[C@H](C2CCCC2)N(C)C(=O)C2(CCC2)NC(=O)[C@@H]2C[C@@H](OCC)CN2C(=O)[C@H](CCc2ccc(C(F)(F)F)c(Cl)c2)NC(=O)CN(C)C(=O)[C@@H]1Cc1ccc(C(F)(F)F)cc1 [PP0405] ([NMeL]I[Aze][Sar][NPrPhe(4-CF3)][Sar][hPhe(3-Cl-4-CF3)][Hyp](Et)[Ac4c][NMeGly(cPent)][NMeD]-Morpholide; lactam N-11) | 0.31 nM | – | – | – | B (a compound having 3 or more and less than 10 is denoted as B) | C (A compound having a KD ratio of 0.1 or more and less than 3 is denoted as C) | – | –
